This is an account of results in patent US20240156974A1, “COMPOSITIONS AND METHODS FOR MODULATION OF ANTIBODY ACTIVITY” (Institute For Cancer Research D/B/A Tha Research Institute …, priority 2021, published 2024).

This assay concerns CTLA-4/CD80 interaction. Put plainly: In vitro CTLA-4/CD80 HTRF binding assay with triple-mutant anti-CTLA-4 scFv (Rip3). The conditions noted are these: no cathepsin B; up to 75 μM JK43 and prodrug; FIG. 2. On the procedure:
In addition to the above, an in vitro CTLA-4/CD80 HTRF (homogeneous time resolved fluorescence) binding assay was performed with cathepsin B activatable prodrug. Specifically, the HTRF assay was used to assess the ability of antibodies to block the CTLA-4/CD80 interaction using a CTLA-4/CD80 binding assay kit (cat. no. 64CTLA80PEG; Cisbio (Codolet, France)). […]
To the above, 4 μL of Tag1-CD80 protein and 4 μL of Tag2-CTLA-4 were added into a black 384-well low volume plate and then incubated at 37° C. for 10 minutes. […] These were used to measure the fluorescence energy transfer between donor Anti-Tag1 Eu Cryptate and acceptor Anti-Tag d2 reagent. Data was collected at different time points (1, 3, 8, 12 and 24 hours) and the FRET signals were measured on a envision multimode plate reader (PerkinElmer, Shelton, CT) using 340 nm as the excitation wavelength, a 620 nm filter for the Eu donor fluorescence detection, and a 665 nm filter for the acceptor fluorescence detection. HTRF signals were calculated as a ratio as follows: (intensity of 665 nm)/(intensity of 620 nm)×10,000, which was plotted against the WT/triple mutant antibody (5GSWT and 5GS 3′M (Rip3)) concentration to derive the EC50.
A general note: In TR-FRET formats the signal depends on donor and acceptor labels being close together.

In the case of `c1ccc(COc2ccc3cn[nH]c3c2)cc1` [Stitch3, 6-phenylmethoxy-1H-indazole], the “rescue of the activity of the triple mutant scFv variant (Rip3)” value was “rescues the activity”.
